Values quoted from earlier work as cited in US8609652B2, “Method of administering a methylene blue-curcumin analog for the treatment of alzheimer's disease” (DePuy Synthes Products, LLC, priority 2009, dated 2013).

Assays:
[1] = test system: beta-amyloid aggregation; conditions: cited from earlier work
[2] = 10 mg/ml patch, 0.1 mA/cm^2 current density; cited from earlier work
[3] = iontophoresis of 100 mg for 20 minutes; cited from earlier work
[4] = test system: neuronal mitochondrial complex IV; conditions: cited from earlier work
[5] = test system: tau filaments; conditions: cited from earlier work
[6] = test system: rate of cognitive decline; conditions: 19 month period; cited from earlier work

Compound: NCCc1ccc(O)c(O)c1 [dopamine]
- potency to inhibit beta-amyloid aggregation relative to curcumin [1]: about 10 times

Compound: CC(C)NCC(O)COc1cccc2ccccc12 (stereo not shown) [propranolol]
- Cmax serum concentration [2]: about 200 ng/ml

Compound: O=C(OCCOCCO)c1ccccc1Nc1cccc(C(F)(F)F)c1 [etofenamate]
- serum concentration [3]: about 200 ng/ml

Compound: CN(C)c1ccc2nc3ccc(=[N+](C)C)cc-3sc2c1 [methylene blue]
- enhancement of cellular oxygen consumption [4]: 37-70%
- increase of neuronal mitochondrial complex IV [4]: 30%
- formation of tau filaments [5]: inhibits the formation of tau filaments
- decrease in the rate of cognitive decline as compared to controls [6]: 81%
